The RepoRT retention time repository (doi:10.1007/s11306-011-0298-z)
Where a name gives a salt, the structure may show the parent alone.

Assay: RP, Waters ACQUITY UPLC HSS T3, 100 × 2.1 mm, 1.8 µm, 30 °C, 0.3 mL/min, estimated dead time 0.73 min; A: water + 0.1% formic acid, pH 3; B: methanol + 0.1% formic acid, pH 3; gradient (min/%B) 0/0 6/0 56/100 60/100
Conditions: stereoisomer not certain

Row | Structure (SMILES) | LC retention time [min]
1 | O=C1CC(c2ccc(O)cc2)Oc2cc(O)cc(O)c21 (configuration not stated) [naringenin] | 33.8
2 | CC1OC(OC2C(Oc3cc(O)c4c(c3)OC(c3ccc(O)cc3)CC4=O)OC(CO)C(O)C2O)C(O)C(O)C1O (configuration not stated) [naringin] | 28.6
3 | NC(=O)c1cccnc1 [nicotinamide] | 3.79
4 | CN1CCCC1c1cccnc1 (configuration not stated) [nicotine] | 4.64
5 | Nc1ncnc2c1ncn2C1OC(COP(=O)(O)OP(=O)(O)OCC2OC([n+]3cccc(C(=O)O)c3)C(O)C2O)C(O)C1O (configuration not stated) [nicotinic acid adenin dinucleotide] | 8.3
6 | O=C(O)c1ccc[n+](C2OC(COP(=O)([O-])O)C(O)C2O)c1 (configuration not stated) [nicotinic acid mononucleotide] | 2.1
7 | O=C(O)c1cccnc1 [nicotinic acid] | 2.98
8 | CCCCCCCCC(=O)O [nonanoic acid] | 43.1
9 | O=C(O)C=Cc1ccccc1O [o-coumaric acid] | 28.1
10 | CCCCCCCC(=O)O [octanoic acid] | 40
11 | CCCCCCCCOC1OC(CO)C(O)C(O)C1O (configuration not stated) [octyl glucopyranoside] | 37.6
12 | CCCCCCCCN [octylamine] | 27.6
13 | CCCCCCCCC=CCCCCCCCC(=O)O [oleic acid] | 54.9
14 | O=c1cc(-c2ccc(O)c(O)c2)oc2c(C3OC(CO)C(O)C(O)C3O)c(O)cc(O)c12 (configuration not stated) [orientin] | 25.5
15 | O=C(O)C(=O)O [oxalic acid] | 1.3
16 | COc1cc(-c2oc3cc(=O)cc4oc(O)cc(c2OC2OC(CO)C(O)C(O)C2O)c43)cc(OC)c1O (configuration not stated) [oxovitisin A] | 33.2
17 | O=C(O)/C=C/c1ccc(O)cc1 [p-coumaric acid] | 24.3
18 | Oc1ccc(C2c3c(O)cc(O)cc3C3C(c4ccc(O)cc4)c4c(O)cc(O)cc4C23)cc1 (configuration not stated) [pallidol] | 25.9
19 | CCCCCCCCCCCCCCCC(=O)O [palmitic acid] | 54.4
20 | OCC1OC(Oc2cc3c(OC4OC(CO)C(O)C(O)C4O)cc(O)cc3[o+]c2-c2ccc(O)cc2)C(O)C(O)C1O (configuration not stated) [pelargonidin-3,5-diglucoside] | 19.6
21 | OCC1OC(Oc2cc3c(O)cc(O)cc3[o+]c2-c2ccc(O)cc2)C(O)C(O)C1O (configuration not stated) [pelargonidin-3-glucoside] | 23.7

Row | Structure (SMILES) | LC retention time [min]
22 | O=c1c(OC2OC(COC3OCC(O)C(O)C3O)C(O)C(O)C2O)c(-c2ccc(O)c(O)c2)oc2cc(O)cc(O)c12 (configuration not stated) [peltatoside] | 28.3
23 | COc1cc(-c2[o+]c3cc(O)cc(OC4OC(CO)C(O)C(O)C4O)c3cc2OC2OC(CO)C(O)C(O)C2O)ccc1O (configuration not stated) [peonidin 3,5 diglucoside] | 20.2
24 | COc1cc(-c2[o+]c3cc(O)cc(O)c3cc2OC2OC(CO)C(O)C(O)C2O)ccc1O (configuration not stated) [peonidin 3-galactoside] | 24
25 | COc1cc(-c2oc3cc(=O)cc(O)c-3cc2OC2OC(COC(=O)C=Cc3ccc(O)cc3)C(O)C(O)C2O)ccc1O (configuration not stated) [peonidin-3-O-(6-p-coumaroyl)-glucoside] | 33
26 | COc1cc(-c2[o+]c3cc(O)cc(O)c3cc2OC2OCC(O)C(O)C2O)ccc1O (configuration not stated) [peonidin-3-arabinoside] | 24.8
27 | COc1cc(-c2[o+]c3cc(O)cc(O)c3cc2OC2OC(CO)C(O)C(O)C2O)cc(O)c1O (configuration not stated) [petunidin-3-glucoside] | 22.9
28 | COc1cc(-c2[o+]c3cc(O)cc(O)c3cc2O)cc(O)c1O [petunidin] | 29.7
29 | NCCc1ccccc1 [phenethylamine] | 12.1
30 | O=C(CCc1ccc(O)cc1)c1c(O)cc(O)cc1OC1OC(CO)C(O)C(O)C1O (configuration not stated) [phloridzin] | 29.6
31 | COC1C(O)C(O)C(O)C(O)C1O (configuration not stated) [pinitol] | 1.41
32 | O=C(O)C1CNCCN1 (configuration not stated) [piperazine carboxylic acid] | 1.19
33 | C1CCNCC1 [piperidine hydrochloride] | 2.5
34 | O=C(C=CC=Cc1ccc2c(c1)OCO2)N1CCCCC1 [piperine] | 40.7
35 | O=C(O)c1ccc2c(c1)OCO2 [piperonylic acid] | 26.7
36 | Oc1cc(O)c2c(c1)OC(c1ccc(O)c(O)c1)C(O)C2c1c(O)cc(O)c2c1OC(c1ccc(O)c(O)c1)C(O)C2 (configuration not stated) [procyanidin B1] | 18.1
37 | Oc1cc(O)c2c(c1)OC1(c3ccc(O)c(O)c3)Oc3cc(O)c4c(c3C2C1O)OC(c1ccc(O)c(O)c1)C(O)C4 (configuration not stated) [procyanidin-A2] | 25.2
38 | CCCN [propylamine] | 1.5
39 | O=C(O)c1ccc(O)c(O)c1 [protocatechuic acid] | 13.9
40 | COc1cc(C=Cc2ccc(O)cc2)cc(OC)c1 [pterostilbene] | 41.4
41 | Cc1ncc(COP(=O)(O)O)c(C=O)c1O [pyridoxal 5-phosphate] | 3.99
42 | Cc1ncc(CO)c(C=O)c1O [pyridoxal] | 3.77

Row | Structure (SMILES) | LC retention time [min]
43 | Cc1ncc(COP(=O)(O)O)c(CN)c1O [pyridoxamine 5-phosphate] | 1.41
44 | Cc1ncc(CO)c(CN)c1O [pyridoxamine] | 1.42
45 | Cc1ncc(CO)c(CO)c1O [pyridoxine] | 4.9
46 | Oc1ccccc1O [pyrocatechol] | 13
47 | C1CCNC1 [pyrrolidine] | 1.5
48 | CC(=O)C(=O)O [pyruvic acid] | 1.79
49 | O=c1c(OC2OC(CO)C(O)C(O)C2O)c(-c2ccc(OC3OC(CO)C(O)C(O)C3O)c(O)c2)oc2cc(O)cc(O)c12 (configuration not stated) [quercetin 3,4'-diglucoside] | 26.1
50 | O=c1c(OC2OC(C(O)CO)C(O)C2O)c(-c2ccc(O)c(O)c2)oc2cc(O)cc(O)c12 (configuration not stated) [quercetin 3-glucoside] | 29.1
51 | O=C(O)C1OC(Oc2c(-c3ccc(O)c(O)c3)oc3cc(O)cc(O)c3c2=O)C(O)C(O)C1O (configuration not stated) [quercetin 3-glucuronide] | 28.4
52 | CC1OC(OCC2OC(Oc3c(-c4ccc(O)c(O)c4)oc4cc(O)cc(O)c4c3=O)C(O)C(O)C2O)C(O)C(O)C1O (configuration not stated) [quercetin 3-rutinoside] | 29.1
53 | O=c1c(OS(=O)(=O)O)c(-c2ccc(O)c(O)c2)oc2cc(O)cc(O)c12 [quercetin 3-sulfate] | 27.4
54 | O=c1c(O)c(-c2ccc(OC3OC(CO)C(O)C(O)C3O)c(O)c2)oc2cc(O)cc(O)c12 (configuration not stated) [quercetin 4'-glucoside] | 30.4
55 | CC(=O)OCC1OC(Oc2c(-c3ccc(O)c(O)c3)oc3cc(O)cc(O)c3c2=O)C(O)C(O)C1O (configuration not stated) [quercetin-3-O-glucose-6''-acetate] | 31
56 | O=c1c(OC2OC(CO)C(O)C(O)C2O)c(-c2ccc(O)c(O)c2)oc2cc(O)cc(O)c12 (configuration not stated) [quercetin-3-galactoside] | 28.9
57 | O=c1c(O)c(-c2ccc(O)c(O)c2)oc2cc(O)cc(O)c12 [quercetin] | 34
58 | CC1OC(Oc2c(-c3ccc(O)c(O)c3)oc3cc(O)cc(O)c3c2=O)C(O)C(O)C1O (configuration not stated) [quercitrin] | 31.1
59 | O=C(O)C1(O)CC(O)C(O)C(O)C1 (configuration not stated) [quinic acid] | 1.6
60 | OCC1OC(OCC2OC(OC3(CO)OC(CO)C(O)C3O)C(O)C(O)C2O)C(O)C(O)C1O (configuration not stated) [raffinose] | 2.6
61 | COc1cc(O)c2c(=O)c(O)c(-c3ccc(O)c(OC)c3)oc2c1 [rhamnazin] | 42.2
62 | COc1cc(O)c2c(=O)c(O)c(-c3ccc(O)c(O)c3)oc2c1 [rhamnetin] | 38.9
63 | CC1OC(O)C(O)C(O)C1O (configuration not stated) [rhamnose] | 1.57

Row | Structure (SMILES) | LC retention time [min]
64 | Cc1cc2nc3c(=O)[nH]c(=O)nc-3n(CC(O)C(O)C(O)CO)c2cc1C (configuration not stated) [riboflavin] | 23.9
65 | CC1OC(OCC2OC(Oc3c(-c4ccc(O)cc4)oc4cc(OC5OC(C)C(O)C(O)C5O)cc(O)c4c3=O)C(O)C(O)C2O)C(O)C(O)C1O (configuration not stated) [robinin] | 28.6
66 | O=C(C=Cc1ccc(O)c(O)c1)OC(Cc1ccc(O)c(O)c1)C(=O)O (configuration not stated) [rosmarinic acid] | 30
67 | COc1cc(O)c2c(c1)OC(c1ccc(O)cc1)CC2=O (configuration not stated) [sakuranetin] | 39
68 | O=C(O)c1ccccc1O [salicylic acid] | 26.4
69 | C=CC(C)(O)CCC1C(C)(O)CCC2C(C)(C)CCCC21C (configuration not stated) [sclareol] | 50.1
70 | COc1cc2ccc(=O)oc2cc1O [scopoletin] | 24.6
71 | NCCc1c[nH]c2ccc(O)cc12 [serotonin] | 11.1
72 | COc1cc(/C=C/C(=O)O)cc(OC)c1O [sinapic acid] | 25.9
73 | COc1cc(/C=C/CO)cc(OC)c1O [sinapyl alcohol] | 23.6
74 | COc1ccc(-c2cc(=O)c3c(OC)c(OC)c(OC)cc3o2)cc1OC [sinensetin] | 39.3
75 | CC=CC=CC(=O)O [sorbic acid] | 25.1
76 | NCCCCNCCCN [spermidine] | 1.04
77 | NCCCNCCCCNCCCN [spermine] | 0.98
78 | OCC1OC(OCC2OC(OCC3OC(OC4(CO)OC(CO)C(O)C4O)C(O)C(O)C3O)C(O)C(O)C2O)C(O)C(O)C1O (configuration not stated) [stachyose] | 2.4
79 | O=C(O)CCC(=O)O [succinic acid] | 4.97
80 | OCC1OC(OC2(CO)OC(CO)C(O)C2O)C(O)C(O)C1O (configuration not stated) [sucrose] | 1.9
81 | COc1cc(C=NN=Cc2cc(OC)c(O)c(OC)c2)cc(OC)c1O [syringaldazine] | 35.5
82 | COc1cc(C=O)cc(OC)c1O [syringaldehyde] | 23.5
